Laboratory results from patent US5356781A, “Zymogen activation peptides (ZAP) in the diagnosis of disease” (Bioscience International, Inc., priority 1986, dated 1994).
Each block holds one molecule with its values, some of them ahead of it. Where no end group is shown, it is not given here.

Key:
[1] = system: affinity-purified Ca^2+ -dependent antibodies present in sera from rabbit 1 (anti-D4 K); experiment: Solution phase competitive immunoradiometric assay: competition of binding to 125I-YD4 K, precipitation with second antibody; conditions: Ca2+-dependent antibodies from rabbit 1; FIG. 3; read-out: IC50, displacement of binding to 125I-YD4 K
Experimental: The relative affinities of affinity-purified Ca^2+ -dependent antibodies present in sera from rabbit 1 for various peptides was examined by determining competition of binding to ^125 I-YD4 K, measured by precipitation with a second antibody, donkey anti-rabbit. […] Some binding to Asp2 Lys was seen.
100 μl of a 1:250 dilution of anti-D4 K antiserum or a dilution of affinity-purified anti-D4 K antibodies in 50mM Tris-Hcl, 20mM CaCl2, 0.1% (w/v) BSA, pH 7.4 (RIA buffer) were added to 100 μl of ^125 I-YD4 K, (10,000 cpm) in RIA buffer containing 0.2% (v/v) normal rabbit serum in polystyrene tubes. Then 100 μl of solutions containing various concentrations of standard peptides or unknown plasma samples diluted in RIA-buffer were added, followed by 50 μl of donkey anti-rabbit Ig serum (Wellcome Biotechnology) diluted 1:10 with RIA-buffer with 0.2% normal rabbit serum. The mixtures were incubated 18 hours at 4° C., then the tubes were centrifuged at 3,000 rpm for 45 minutes at 4° C., and the supernatants aspirated. The radioactivity in the precipitates was determined in an LKB rack-gamma counter.

[2] = format: in vitro ADME
Experimental: The stability of APFD4 K and D4 K were examined by incubation with activated pancreatic juice, and the chemical identity of the product examined by high-voltage paper electrophoresis at pH 6.5. […] In three separate experiments, duplicate 65 to 75 mg portions of fresh dog pancreas were placed in modified Bank's medium and incubated in the presence or absence of 100 units enterokinase (Sigma Chem. Co. […]) at 37° C. for 4 hours and 22° C. for a further 20 hours. Duplicate 100 ul samples of culture medium supernatant were taken at intervals, diluted 2:1 with RIA buffer, boiled for 10 minutes and centrifuged. Supernatants were then stored at -20° C. prior to assay for D4 K peptides.

[3] = Incubation in human serum (immunoreactivity; Sephadex G-100 chromatography); format: in vitro ADME
Experimental: Immunoreactive D4 K was unaltered by incubation with undenatured human serum at 37° C. for 6 hours and 4° C. for 48 hours.

in vivo = conditions: rat, iv
Experimental: To determine the fate of circulating peptide, D4 K (0.28 ml, 1 mg/ml) was injected into the left femoral vein of rats under phenobarbital anaesthesia. Blood samples (0.5 ml) were collected every 15 minutes for 2 hours, and subjected to immunoassay.

anti-D4 K antibodies = experiment: Displacement of 125I-YD4 K binding by trypsinogen with and without enteropeptidase activation; set-up: species or system rabbit
Experimental: Of great importance to the general principle of the PAP assay of which this is an example, and for the application of these specific anti-D4 K antibodies to the diagnosis of pancreatic disease was the finding that anti-D4 K antibodies were […] on the peptide, and were not displaced by trypsinogen (where the peptide is C-terminally bound to the protein) in concentrations of the zymogen of up to 100 μg/ml. Upon incubation of trypsinogen with enteropeptidase, however, released D4 K-containing activation peptides actively displaced the binding of synthetic ^125 I-YD4 K giving 50% displacement after activation of a 2 μg/ml solution of trypsinogen (FIG. 4). Trypsinogen in native dog pancreatic juice was also activated by enteropeptidase (FIG. 4) releasing immunoreactive D4 K peptides, giving 50% displacement in competitive solution-phase immunoassay after activation of 10^-8 L pancreatic juice. The novel D4 K-specific antibodies described here therefore also provide a new sensitive assay for enteropeptidase and trypsinogen applicable to fluids with endogenous trypsin inhibitors. […]

Molecule: APFDDDDK [APFD4 K, Ala-Pro-Phe-Asp-Asp-Asp-Asp-Lys]
- stability in activated pancreatic juice (identity of product) [2]: rapidly converted to free Ala, Pro and Phe and D4 K

Molecule: YDDDDK [YD4 K]
- complexing with a serum component ([3]; Sephadex G-100 chromatography after incubation in human serum): did not complex with a serum component

Molecule: poly-Asp
- IC50 [1]: > 100 µM

Molecule: DDDDK [D4 K, Asp-Asp-Asp-Asp-Lys]
- half-life (in vivo): ~15 min
- stability of immunoreactive peptide in undenatured human serum ([3]; 4° C. for 48 hours): unaltered
- stability of immunoreactive peptide in undenatured human serum ([3]; 37° C. for 6 hours): unaltered

Further lines, results first:

- IC50 [1]: > 100 µM
Molecule: N[C@@H](CC(=O)O)C(=O)O [Asp, Aspartic Acid]

- IC50 [1]: > 100 µM
Molecule: NCCCC[C@H](N)C(=O)O [Lys, Lysine]

- concentration of solution giving 50% displacement of 125I-YD4 K (anti-D4 K antibodies; after incubation of trypsinogen with enteropeptidase, FIG. 4): 2 µg/mL
- concentration up to which antibodies were not displaced (anti-D4 K antibodies; trypsinogen without enteropeptidase activation): > 100 µg/mL
B1: trypsinogen: zymogen in which the D4 K peptide is C-terminally bound to the protein (protein, UniProt P00760 18-246, looked up)
pro-form: VDDDDKIVGGYTCGANTVPYQVSLNSGYHFCGGSLINSQWVVSAAHCYKSGIQVRLGEDNINVVEGNEQFISASKSIVHPSYNSNTLNNDIMLIKLKSAASLNSRVASISLPTSCASAGTQCLISGWGNTKSSGTSYPDVLKCLKAPILSDSSCKSAYPGQITSNMFCAGYLEGGKDSCQGDSGGPVVCSGKLQGIVSWGSGCAQKNKPGVYTKVCNYVSWIKQTIASN
modifications: pro-form
